Assay results published in patent US8388960B2, “Elimination of heterogeneous or mixed cell population in tumors” (priority 2005, dated 2013).

Legend:
COLO 205 cells = assay: Cell cycle studies (G2/M arrest, DNA content by FACS) in COLO 205 cells; format: cell-based, human
Description: Exponentially growing COLO 205 cells were resuspended at 1-2×10^5 cells/mL before drug or conjugate treatment. […] DNA content analysis was performed using FACSCalibur (Becton Dickinson, San Jose, Calif.). 10,000 events per sample were collected, and FL2-A histograms generated for each sample. The cell cycle analysis software, ModFit LT 3.1 (Verity Software House, Topsham, Me.) was used to determine the percentage of cells in different phases of the cell cycle.
Samples of asynchronously growing cells were exposed to conjugate (3 nM), or DM1-SMe (10 nM see FIG. 16 for structure), or nocodazole (0.66 μM) another inhibitor of microtubule polymerization, at 37° C. for 20 h and the DNA content of the cells was then analyzed by flow cytometry.
COLO 205 cells were first synchronized with a 24-hr treatment of aphidicolin, a reversible DNA replication inhibitor that blocks cells in S phase (Ikegami S. et al., Nature, 275, 458-460 ((1978)). Since the majority of the asynchronous population of COLO 205 cells were in G1 phase, most of the aphidicolin-treated cells arrested in the beginning of S phase, which cannot be distinguished from G1 phase in the FACS analysis (FIG. 11B, top picture). The synchronized cells were then released from the arrest by the removal of aphidicolin, and either left untreated, or treated with DM1-SMe or with either conjugate.

[1] = single intravenous dose of 12.5 μg/kg; cited from earlier work
[2] = Thiol-disulfide interchange of DM4 in RPMI 1640 medium; conditions: buffer
Description: To further test whether any of the metabolites in the media was a disulfide compound, a cell supernatant sample from a 26-hour exposure was divided into two equal portions of which one was subjected directly to chromatography, and the other portion was treated with DTT and selenol before chromatography to reduce all disulfide bonds (18).

[3] = test system: antigen-positive COLO 205 cells; assay: MTT-based cytotoxicity assay, COLO 205 cells (Example 2); format: cell-based, human; conditions: conjugates 4-day exposure
Description: (§1) The anti-tumor activity of the two conjugates was assessed in SCID mice bearing subcutaneous HT-29 or COLO 205 tumors (both CanAg-positive human colon adenocarcinoma).
(§2) The two major metabolites, S-methyl-DM4 and lysine-N^ε—SMCC-DM1, were synthesized and tested for their in vitro cytotoxicity against COLO 205 cells and Namalwa cells.

[4] = test system: antigen-negative Namalwa cells; assay: MTT-based cytotoxicity assay, Namalwa cells (Example 2); format: cell-based, human; conditions: free maytansinoids
Description: as §1, §2

CO/C1=C\C(C)=C\[C@@H](C)[C@@H](O)[C@@H](C)C/C(C)=C/C=C/[C@H](OC)[C@@H]([C@@H](C)[C@@H](O)[C@H](C)[C@@]2(O)C[C@@H](O)[C@H](C)[C@@H](C(C)C)O2)OC1=O [BafA1, Bafilomycin A1, reference compound]
distribution of cells between the phases of the cell cycle (COLO 205 cells; BafA1 alone): did not significantly alter the distribution of cells

COc1c(O)c2c(c3cc(C(=O)N4CCc5c4c(O)c(OC)c4[nH]c(C(=O)N6CC7CC78C6=CC(=O)c6[nH]cc(C)c68)cc54)[nH]c13)CCN2C(N)=O (stereo not drawn) [CC-1065]
toxicity after administration to mice [1]: delayed hepatotoxicity leading to mortality on day 50

COc1cc2cc(c1Cl)N(C)C(=O)C[C@H](OC(=O)[C@H](C)N(C)C(=O)CCSSC)[C@]1(C)O[C@H]1[C@H](C)[C@@H]1C[C@@](O)(NC(=O)O1)[C@H](OC)/C=C/C=C(\C)C2 [DM1-SMe, N^2′-deacetyl-N^2′-[(3-methyldithio)-1-oxopropyl]-maytansine]
cells in G2 in the presence of chloroquine (COLO 205 cells; 20 h, 30 μM chloroquine, 10^−8 M DM1-SMe, 3×10^−9 M huC242-SMCC-DM1): 51% | cells in G2/M phase after release from aphidicolin (COLO 205 cells; synchronized cells, after 10 h and after 18 h): 75% to 85%

COc1cc2cc(c1Cl)N(C)C(=O)CC(OC(=O)C(C)N(C)C(=O)CCC(C)(C)S)C1(C)OC1C(C)C1CC(O)(NC(=O)O1)C(OC)/C=C/C=C(\C)C2 (stereo not drawn) [DM4, N^2′-deacetyl-N-^2′(4-methyl-4-mercapto-1-oxopentyl)-maytansine]
half-life [2]: < 1 h

COc1cc2cc(c1Cl)N(C)C(=O)C[C@H](OC(=O)[C@H](C)N(C)C(=O)CCC(C)(C)SC)[C@]1(C)O[C@H]1[C@H](C)[C@@H]1C[C@@](O)(NC(=O)O1)[C@H](OC)/C=C/C=C(\C)C2 [S-methyl-DM4, N^2′-deacetyl-N^2′-(4-methylthio-4-methyl-1-oxopentyl)-maytansine]
IC50 [3]: 0.002 nM | IC50 [4]: 0.002 nM

COc1cc2cc(c1Cl)N(C)C(=O)C[C@H](OC(=O)[C@H](C)N(C)C(C)=O)[C@]1(C)O[C@H]1[C@H](C)[C@@H]1C[C@@](O)(NC(=O)O1)[C@H](OC)/C=C/C=C(\C)C2 [maytansine, reference compound]
IC50 ([3]; Homo sapiens, COLO 205, 96 h): 0.03 to 0.06 nM | IC50 ([4]; Homo sapiens): 0.03 to 0.06 nM
